Experimental findings from patent US10385031B2, “Substituted piperazines as selective HDAC1,2 inhibitors” (Regenacy Pharmaceuticals, LLC, priority 2016, dated 2019) are described below.

Data set [1] in a line: Rat pharmacokinetics, cassette dosing (IV and PO). The format is in vivo. The settings on record: rat, plasma, male SD rats; for bioavailability: 5 mg/kg, oral AUC to IV AUC, dose adjusted; for IV clearance: IV 1 mg/kg; for AUC / Cmax / half-life: PO 5 mg/kg; for half-life: read-out: PO T½ (converted). The protocol:
Male SD rats were fasted overnight. Compounds of the invention were dissolved in dimethyl acetamide at 10 times the final concentration, then Solutol HS 15 (BASF) was added to a final concentration of 10%. Finally 80% saline was added and vortexed to achieve a clear solution. For the IV dosing three animals were injected via the foot dorsal vein with 1 mg/kg compound. For the PO dosing 5 mg/kg of compound was delivered by oral gavage. Blood was collected via the tail vein into K2EDTA tubes at 5 minutes, 15 minutes, 30 minutes, 1 hour, 2 hours, 4 hours, 8 hours and 24 hours after dosing. The blood was centrifuged at 2000 g for 5 minutes at 4° C. to obtain plasma. The plasma was extracted with acetonitrile and the level of compound was analyzed by LC/MS/MS. The level of compound in plasma was calculated from a standard curve in rat plasma. The IV clearance (L/h/kg) and area under the curve (h*ng/mL) were calculated using WinNonLin software. The dose adjusted area under the curve for the IV and oral dosing were used to calculate the oral bioavailability.
Pharmacokinetic properties were assessed in a rat cassette dosing experiment. The IV clearance (IV Clr.) is in units of L/hr/kg. The oral maximum plasma concentration (PO Cmax) is in units of ng/ml. The oral plasma half-life (PO T½) is in units of hours. The oral area under the curve (PO AUC) is in units of hours*ng/ml. The fraction absorbed by the oral route (F %) is a percentage of the oral area under the curve to the IV area under the curve, dose adjusted.

For another data set, the target named is HDAC1 (Homo sapiens (Human), UniProt Q13547). Put plainly: HDAC enzyme assay HDAC1. Type of data set: biochemical.
Another data set concerns the target HDAC3 (Homo sapiens (Human), UniProt O15379). Put plainly: HDAC enzyme assay HDAC3. The format is biochemical. The protocol:
Compounds for testing were diluted in DMSO to 50 fold the final concentration and a ten-point three-fold dilution series was made. The compounds were diluted in assay buffer (50 mM HEPES, pH 7.4, 100 mM KCl, 0.001% Tween-20, 0.05% BSA, 20 μM TCEP) to 6-fold their final concentration. The HDAC enzymes (purchased from BPS Biosciences) were diluted to 1.5-fold their final concentration in assay buffer. The tripeptide substrate and trypsin at 0.05 μM final concentration were diluted in assay buffer at 6-fold their final concentration. The final enzyme concentrations used in these assays were 3.3 ng/ml (HDAC1), 0.2 ng/ml (HDAC2) and 0.08 ng/ml (HDAC3). The final substrate concentrations used were 16 μM (HDAC1), 10 μM (HDAC2) and 17 μM (HDAC3). Five μl of compounds and 20 μl of enzyme were added to wells of a black, opaque 384 well plate in duplicate. Enzyme and compound were incubated together at room temperature for 10 minutes. Five μl of substrate was added to each well, the plate was shaken for 60 seconds and placed into a Victor 2 microtiter plate reader. The development of fluorescence was monitored for 60 min and the linear rate of the reaction was calculated. The IC50 was determined using Graph Pad Prism by a four parameter curve fit. In Table 4 below, letter designations are defined as follows: […]

The target in another data set is HDAC2 (Homo sapiens (Human), UniProt Q92769). Put plainly: HDAC enzyme assay HDAC2. The format is biochemical. The protocol: Compounds for testing were diluted in DMSO to 50 fold the final concentration and a ten-point three-fold dilution series was made. The compounds were diluted in assay buffer (50 mM HEPES, pH 7.4, 100 mM KCl, 0.001% Tween-20, 0.05% BSA, 20 μM TCEP) to 6-fold their final concentration. The HDAC enzymes (purchased from BPS Biosciences) were diluted to 1.5-fold their final concentration in assay buffer. The tripeptide substrate and trypsin at 0.05 μM final concentration were diluted in assay buffer at 6-fold their final concentration. The final enzyme concentrations used in these assays were 3.3 ng/ml (HDAC1), 0.2 ng/ml (HDAC2) and 0.08 ng/ml (HDAC3). The final substrate concentrations used were 16 μM (HDAC1), 10 μM (HDAC2) and 17 μM (HDAC3).
Five μl of compounds and 20 μl of enzyme were added to wells of a black, opaque 384 well plate in duplicate. Enzyme and compound were incubated together at room temperature for 10 minutes. Five μl of substrate was added to each well, the plate was shaken for 60 seconds and placed into a Victor 2 microtiter plate reader. The development of fluorescence was monitored for 60 min and the linear rate of the reaction was calculated. The IC50 was determined using Graph Pad Prism by a four parameter curve fit.

Each structure is given as a SMILES string.

HDAC2, sequence (Q92769 whole entry): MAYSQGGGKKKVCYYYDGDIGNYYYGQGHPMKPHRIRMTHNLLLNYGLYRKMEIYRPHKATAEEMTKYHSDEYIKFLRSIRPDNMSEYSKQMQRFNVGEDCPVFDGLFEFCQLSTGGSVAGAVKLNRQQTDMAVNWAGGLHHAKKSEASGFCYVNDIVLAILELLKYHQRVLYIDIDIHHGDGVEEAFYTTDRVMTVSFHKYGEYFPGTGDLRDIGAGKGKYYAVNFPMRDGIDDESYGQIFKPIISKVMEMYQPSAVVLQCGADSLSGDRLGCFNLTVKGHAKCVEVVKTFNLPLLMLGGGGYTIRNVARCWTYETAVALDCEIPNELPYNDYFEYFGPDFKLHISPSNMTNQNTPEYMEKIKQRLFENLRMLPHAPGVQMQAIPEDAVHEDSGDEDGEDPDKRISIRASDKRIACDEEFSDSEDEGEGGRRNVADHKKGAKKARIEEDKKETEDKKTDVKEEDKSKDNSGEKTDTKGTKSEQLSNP
HDAC3, sequence (O15379 whole entry): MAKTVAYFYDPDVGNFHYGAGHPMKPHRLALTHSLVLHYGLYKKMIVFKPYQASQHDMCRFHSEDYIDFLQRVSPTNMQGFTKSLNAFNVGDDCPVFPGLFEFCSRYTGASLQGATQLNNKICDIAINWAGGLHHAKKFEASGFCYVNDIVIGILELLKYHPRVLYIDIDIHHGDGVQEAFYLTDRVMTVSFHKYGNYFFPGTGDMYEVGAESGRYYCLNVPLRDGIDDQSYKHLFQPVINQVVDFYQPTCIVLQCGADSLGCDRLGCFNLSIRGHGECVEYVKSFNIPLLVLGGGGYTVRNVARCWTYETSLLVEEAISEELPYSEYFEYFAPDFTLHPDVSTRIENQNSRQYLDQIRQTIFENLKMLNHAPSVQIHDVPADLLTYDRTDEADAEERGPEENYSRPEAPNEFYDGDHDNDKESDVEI
HDAC3, sequence (Q9Y618 395-489 partner): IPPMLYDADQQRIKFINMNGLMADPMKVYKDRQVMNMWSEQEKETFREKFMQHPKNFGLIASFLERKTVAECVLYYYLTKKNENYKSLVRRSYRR
HDAC1, sequence (Q13547 whole entry): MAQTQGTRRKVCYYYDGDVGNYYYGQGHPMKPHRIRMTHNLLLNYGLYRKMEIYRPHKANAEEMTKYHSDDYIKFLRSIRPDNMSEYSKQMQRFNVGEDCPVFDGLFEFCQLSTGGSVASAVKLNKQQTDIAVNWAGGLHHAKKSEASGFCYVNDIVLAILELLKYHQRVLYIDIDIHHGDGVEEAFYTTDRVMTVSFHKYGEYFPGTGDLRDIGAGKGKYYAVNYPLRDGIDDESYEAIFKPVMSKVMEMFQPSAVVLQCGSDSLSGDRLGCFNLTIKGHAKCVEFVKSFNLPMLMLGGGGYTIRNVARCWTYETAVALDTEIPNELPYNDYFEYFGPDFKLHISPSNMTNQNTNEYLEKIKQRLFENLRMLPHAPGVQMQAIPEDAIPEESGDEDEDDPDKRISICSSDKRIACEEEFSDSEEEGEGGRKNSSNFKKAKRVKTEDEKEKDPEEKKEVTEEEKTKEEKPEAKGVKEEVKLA

Take `Nc1ccc(-c2ccccc2)cc1NC(=O)c1ccc2nc(N3CCNCC3)ccc2c1` [Compound 002]: in data set [1], the bioavailability amounted to 86.1%, the IV clearance is 2 mL/min/kg, the AUC stood at 34600 ng·h/mL and the Cmax amounted to 3750 ng/mL. Moreover, the half-life in data set [1] is 5.9 h.
For `Nc1ccc(-c2ccoc2)cc1NC(=O)c1ccc2nc(N3CCNCC3)ccc2c1` [Compound 004] the same measures were 90.8%, 0.667 mL/min/kg, 91900 ng·h/mL, 10400 ng/mL and 4.3 h.
`Nc1ccc(-c2ccco2)cc1NC(=O)c1ccc(N2CCNCC2)nc1` [Compound 008]: in data set [1], the bioavailability stood at 100%, the IV clearance is 14.3 mL/min/kg, the AUC was determined as 5540 ng·h/mL and the Cmax was 536 ng/mL. Moreover, the half-life in data set [1] is 5.6 h.
For `Nc1ccc(-c2ccncc2)cc1NC(=O)c1ccc(N2CCNCC2)nc1` [Compound 010] the same measures were 12.6%, 18.3 mL/min/kg, 570 ng·h/mL, 164 ng/mL and 4.7 h.
As for `Nc1ccc(-c2cccs2)cc1NC(=O)c1ccc(N2CCNCC2)cc1` [Compound 012], in data set [1], the bioavailability was 93.9%, the IV clearance was 8.83 mL/min/kg, the AUC is 8190 ng·h/mL and the Cmax is 534 ng/mL. For the same compound, the half-life in data set [1] is 7.7 h.
As for `Nc1ccc(-c2ccco2)cc1NC(=O)c1ccc(N2CCNCC2)cc1` [Compound 013], in data set [1], the bioavailability amounted to 105%, the IV clearance was 13 mL/min/kg, the AUC stood at 5780 ng·h/mL and the peak level (Cmax) was 425 ng/mL. In addition, the half-life in data set [1] was 8.1 h.
The like results for `Nc1ccc(-c2ccoc2)cc1NC(=O)c1ccc(N2CCNCC2)cc1` [Compound 014] were, in that order, 97%, 11 mL/min/kg, 7100 ng·h/mL, 727 ng/mL and 4.9 h.
As to `Nc1ccc(-c2cccs2)cc1NC(=O)c1cnc2cc(N3CCNCC3)ccc2c1` [Compound 023], in data set [1], the bioavailability is 51.2%, the IV clearance is 6 mL/min/kg, the exposure (AUC) is 6370 ng·h/mL and the highest concentration (Cmax) is 664 ng/mL. Also, the half-life in data set [1] is 8.5 h.
For `Nc1ccc(-c2ccco2)cc1NC(=O)c1cnc2cc(N3CCNCC3)ccc2c1` [Compound 024], in data set [1], the bioavailability turned out to be 36.3%, the IV clearance is 3.5 mL/min/kg, the AUC worked out at 8220 ng·h/mL and the Cmax amounted to 1000 ng/mL. The half-life in data set [1] is 4.4 h.
For `Nc1ccc(-c2cccs2)cc1NC(=O)c1ccc(N2CCNCC2)s1` [Compound 033] the same measures were 191%, 10.8 mL/min/kg, 10700 ng·h/mL, 614 ng/mL and 13.7 h.
As for `Nc1ccc(-c2ccco2)cc1NC(=O)c1cnc(N2CCNCC2)s1` [Compound 034], the values for the IC50 against HDAC1, against HDAC3 and on HDAC2 were under 10 nM, 10 to 500 nM and 10 to 500 nM, respectively.
Turning to `Nc1ccc(-c2ccc(F)cc2)cc1NC(=O)c1cnc(N2CCNCC2)s1` [Compound 037], the results for the IC50 against HDAC1, against HDAC3 and against HDAC2 were under 10 nM, 10 to 500 nM and 10 to 500 nM, respectively.
`Cc1nc(C(=O)Nc2cc(-c3cccs3)ccc2N)sc1N1CCNCC1` [Compound 041]: the half-maximal inhibitory concentration (IC50) at HDAC1 was under 10 nM; against HDAC3, 10 to 500 nM; against HDAC2, 10 to 500 nM.
For the compound `Cc1nc(C(=O)Nc2cc(-c3ccco3)ccc2N)sc1N1CCNCC1` [Compound 042], the results for the IC50 against HDAC1, against HDAC3 and against HDAC2 were under 10 nM, 10 to 500 nM and 10 to 500 nM, respectively.
For `Cc1nc(C(=O)Nc2cc(-c3ccoc3)ccc2N)sc1N1CCNCC1` [Compound 043], the IC50 is under 10 nM against HDAC1, over 500 nM against HDAC3 and 10 to 500 nM on HDAC2.
For the compound `Nc1ccc(-c2ccccn2)cc1NC(=O)c1cnc(N2CCNCC2)s1` [Compound 044], the IC50 on HDAC1 was 10 to 500 nM; on HDAC3, over 500 nM; at HDAC2 it was 10 to 500 nM.
For the compound `Nc1ccc(-c2cccnc2)cc1NC(=O)c1cnc(N2CCNCC2)s1` [Compound 045], the IC50 on HDAC1, against HDAC3 and against HDAC2 was 10 to 500 nM throughout.
As to `Nc1ccc(-c2ccoc2)cc1NC(=O)c1cnc(N2CCNCC2)s1` [Compound 046], the IC50 is under 10 nM at HDAC1, 10 to 500 nM at HDAC3 and 10 to 500 nM against HDAC2.
Consider `Nc1ccc(-c2ccccc2)cc1NC(=O)c1cnc(N2CCNCC2)s1` [Compound 047], for which the IC50 at HDAC1 is under 10 nM; against HDAC3, over 500 nM; on HDAC2, 10 to 500 nM.
Regarding `CN1CCN(c2ncc(C(=O)Nc3cc(-c4ccccc4)ccc3N)s2)CC1` [Compound 048], the IC50 was under 10 nM on HDAC1, over 500 nM at HDAC3 and 10 to 500 nM at HDAC2.
On to `Nc1ccc(-c2ccccc2)cc1NC(=O)c1ncc(N2CCNCC2)s1` [Compound 049], for which the half-inhibitory concentration (IC50) on HDAC3 and against HDAC2 was 10 to 500 nM throughout.
As to `Nc1ccc(-c2ccco2)cc1NC(=O)c1ncc(N2CCNCC2)s1` [Compound 050], the results for the IC50 at HDAC1, on HDAC3 and on HDAC2 were under 10 nM, 10 to 500 nM and 10 to 500 nM, respectively.
As for `Nc1ccc(-c2ccoc2)cc1NC(=O)c1ncc(N2CCNCC2)s1` [Compound 051], the IC50 against HDAC1 is under 10 nM; on HDAC3 it was 10 to 500 nM; on HDAC2 it was under 10 nM.
Consider `Nc1ccc(-c2ccncc2)cc1NC(=O)c1ncc(N2CCNCC2)s1` [Compound 052], for which the results for the IC50 against HDAC1, at HDAC3 and at HDAC2 were under 10 nM, 10 to 500 nM and 10 to 500 nM, respectively.
Regarding `Nc1ccc(-c2ccc(F)cc2)cc1NC(=O)c1ncc(N2CCNCC2)s1` [Compound 053], the IC50 is under 10 nM at HDAC1, 10 to 500 nM on HDAC3 and under 10 nM against HDAC2.
For `CN1CCN(c2cnc(C(=O)Nc3cc(-c4ccco4)ccc3N)s2)CC1` [Compound 054], the IC50 at HDAC1 is under 10 nM; against HDAC3 it was 10 to 500 nM; at HDAC2, 10 to 500 nM.
For `Nc1ccc(-c2ccco2)cc1NC(=O)c1nc(N2CCNCC2)cs1` [Compound 055], the IC50 is over 500 nM at HDAC1, over 500 nM against HDAC3 and 10 to 500 nM against HDAC2.
As for `Nc1ccc(-c2ccoc2)cc1NC(=O)c1nc(N2CCNCC2)cs1` [Compound 056], the IC50 against HDAC1 is 10 to 500 nM; against HDAC3 it was over 500 nM; on HDAC2, 10 to 500 nM.
Turning to `Nc1ccc(-c2ccncc2)cc1NC(=O)c1nc(N2CCNCC2)cs1` [Compound 057], the IC50 against HDAC1 was over 500 nM; against HDAC3, over 500 nM; at HDAC2 it was 10 to 500 nM.
Regarding `Nc1ccc(-c2ccc(F)cc2)cc1NC(=O)c1nc(N2CCNCC2)cs1` [Compound 058], the IC50 against HDAC1, against HDAC3 and on HDAC2 was 10 to 500 nM throughout.
In the case of `CN1CCN(c2ccc(C(=O)Nc3cc(-c4cccs4)ccc3N)cn2)CC1` [Compound 071], the IC50 on HDAC3 and on HDAC2 was 10 to 500 nM throughout.

In general, AUC refers to concentration integrated over time. A low value points to low exposure. Broadly, the Cmax is the peak of the concentration-time curve. The IC50 is the concentration that gives 50% inhibition.
